Source: ChEMBL document CHEMBL1201862, “PubChem BioAssay data set” (2004)
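Five compound concentrations were applied to cells in 96-well plates for 48 hours; endpoints were derived by simple linear interpolation of the resulting dose-response curve. Abbreviation: GI50, concentration required for 50% inhibition of growth.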 Active and inactive are the calls of the source. Cut-off read from the data, not from the text of the source: active = GI50 up to about 1.1 µM and inactive = higher.

Key:
Test in all cases: NCI anticancer screen, dose series, 48 h
[1] = test system: OVCAR-5
[2] = test system: CCRF-CEM
[3] = test system: Hs-578T
[4] = test system: OVCAR-4
[5] = test system: SNB-75
[6] = test system: M14
[7] = test system: NCI-H23
[8] = test system: U-251
[9] = test system: Malme-3M
[10] = test system: TK-10
[11] = test system: SK-MEL-5
[12] = test system: PC-3
[13] = test system: HOP-92
[14] = test system: ACHN
[15] = test system: SK-OV-3
[16] = test system: UO-31
[17] = test system: NCI/ADR-RES
[18] = test system: HL-60
[19] = test system: MDA-MB-231
[20] = test system: DU-145

Compound | GI50 [1] | GI50 [2] | GI50 [3] | GI50 [4] | GI50 [5] | GI50 [6] | GI50 [7] | GI50 [8] | GI50 [9] | GI50 [10] | GI50 [11] | GI50 [12] | GI50 [13] | GI50 [14] | GI50 [15] | GI50 [16] | GI50 [17] | GI50 [18] | GI50 [19] | GI50 [20]
O=C(O)Cc1cc(Cl)ccc1O | > 100 µM (inactive) | > 100 µM (inactive) | > 100 µM (inactive) | > 100 µM (inactive) | > 100 µM (inactive) | > 100 µM (inactive) | > 100 µM (inactive) | > 100 µM (inactive) | > 100 µM (inactive) | > 100 µM (inactive) | > 100 µM (inactive) | > 100 µM (inactive) | > 100 µM (inactive) | > 100 µM (inactive) | > 100 µM (inactive) | > 100 µM (inactive) | > 100 µM (inactive) | > 100 µM (inactive) | > 100 µM (inactive) | > 100 µM (inactive)
Cc1cn(C2CC(N=[N+]=[N-])C(C(=O)O)O2)c(=O)[nH]c1=O (stereo not given) | > 100 µM (inactive) | > 100 µM (inactive) | > 100 µM (inactive) | > 100 µM (inactive) | > 100 µM (inactive) | > 100 µM (inactive) | > 100 µM (inactive) | > 100 µM (inactive) | > 100 µM (inactive) | > 100 µM (inactive) | < 0.01 µM (active) | > 100 µM (inactive) | > 100 µM (inactive) | > 100 µM (inactive) | > 100 µM (inactive) | > 100 µM (inactive) | > 100 µM (inactive) | > 100 µM (inactive) | > 100 µM (inactive) | > 100 µM (inactive)
CN(C)CCCNC(CC#N)CCC#N (stereo not given) | > 10 µM (inactive) | > 10 µM (inactive) | > 10 µM (inactive) | > 10 µM (inactive) | > 10 µM (inactive) | > 10 µM (inactive) | > 10 µM (inactive) | > 10 µM (inactive) | > 10 µM (inactive) | > 10 µM (inactive) | > 10 µM (inactive) | > 10 µM (inactive) | > 10 µM (inactive) | > 10 µM (inactive) | > 10 µM (inactive) | > 10 µM (inactive) | > 10 µM (inactive) | > 10 µM (inactive) | > 10 µM (inactive) | > 10 µM (inactive)
O=C(O)CC(NC(=O)/C(=C/c1ccccc1)NC(=O)c1ccccc1)C(=O)O (stereo not given) | > 100 µM (inactive) | > 100 µM (inactive) | > 100 µM (inactive) | > 100 µM (inactive) | > 100 µM (inactive) | > 100 µM (inactive) | > 100 µM (inactive) | > 100 µM (inactive) | > 100 µM (inactive) | > 100 µM (inactive) | > 100 µM (inactive) | > 100 µM (inactive) | > 100 µM (inactive) | > 100 µM (inactive) | > 100 µM (inactive) | > 100 µM (inactive) | > 100 µM (inactive) | > 100 µM (inactive) | > 100 µM (inactive) | > 100 µM (inactive)
C#C[C@]1(O)CC[C@H]2[C@@H]3CCC4=C/C(=N/OC(=O)c5cccc6c(=O)c7ccccc7[nH]c56)CCC4[C@H]3CC[C@@]21CC (stereo not given in full) | > 100 µM (inactive) | 8.05 µM (inactive) | > 100 µM (inactive) | 49.3 µM (inactive) | 9.18 µM (inactive) | 34.5 µM (inactive) | 26.4 µM (inactive) | 9.89 µM (inactive) | 34.7 µM (inactive) | > 100 µM (inactive) | 14.9 µM (inactive) | 18.5 µM (inactive) | 42.6 µM (inactive) | 26.2 µM (inactive) | 63.1 µM (inactive) | 23.2 µM (inactive) | 15.8 µM (inactive) | 2.44 µM (inactive) | 54.8 µM (inactive) | 55.2 µM (inactive)
Cn1c(=O)cc(NNc2ccccc2)[nH]c1=O | 85.5 µM (inactive) | 34.1 µM (inactive) | > 100 µM (inactive) | > 100 µM (inactive) | > 100 µM (inactive) | 29.9 µM (inactive) | > 100 µM (inactive) | 17.8 µM (inactive) | 19.9 µM (inactive) | 30.3 µM (inactive) | > 100 µM (inactive) | > 100 µM (inactive) | 22.1 µM (inactive) | 36.4 µM (inactive) | > 100 µM (inactive) | 83.2 µM (inactive) | > 100 µM (inactive) | 26.7 µM (inactive) | 18.7 µM (inactive) | 54.2 µM (inactive)
S=C1N=C(Cl)/C(=C\c2ccccc2)N1 | > 100 µM (inactive) | > 31.6 µM (inactive) | > 100 µM (inactive) | > 100 µM (inactive) | > 100 µM (inactive) | > 100 µM (inactive) | > 100 µM (inactive) | > 100 µM (inactive) | > 83.6 µM (inactive) | > 100 µM (inactive) | > 100 µM (inactive) | > 100 µM (inactive) | > 100 µM (inactive) | > 100 µM (inactive) | > 100 µM (inactive) | > 100 µM (inactive) | > 100 µM (inactive) | > 100 µM (inactive) | > 100 µM (inactive) | > 100 µM (inactive)
C=CCOC(=O)N1c2ccc(O)cc2[C@@]23O[C@@]24[C@@H]1C#C/C=C\C#C[C@]3(O)C(OC)(OC)C[C@@H]4C | 75.9 µM (inactive) | 23.6 µM (inactive) | 37.8 µM (inactive) | 0.258 µM (active) | 12.1 µM (inactive) | 23.8 µM (inactive) | 24.4 µM (inactive) | 33.5 µM (inactive) | 26.8 µM (inactive) | 29.9 µM (inactive) | 13.8 µM (inactive) | 24 µM (inactive) | 16.4 µM (inactive) | 17.7 µM (inactive) | 61 µM (inactive) | 37.2 µM (inactive) | 32.3 µM (inactive) | 32.8 µM (inactive) | 23.6 µM (inactive) | 46.6 µM (inactive)
Cc1cc(C)nc(NS(=O)(=O)c2ccc(Nc3c4ccccc4nc4ccc(C(=O)Nc5ccc(S(N)(=O)=O)cc5)cc34)cc2)n1 | > 100 µM (inactive) | 63.7 µM (inactive) | > 100 µM (inactive) | > 100 µM (inactive) | > 100 µM (inactive) | > 100 µM (inactive) | > 100 µM (inactive) | 66.4 µM (inactive) | > 100 µM (inactive) | > 100 µM (inactive) | 72.6 µM (inactive) | > 100 µM (inactive) | > 100 µM (inactive) | > 100 µM (inactive) | > 100 µM (inactive) | > 100 µM (inactive) | 69.3 µM (inactive) | > 100 µM (inactive) | 20 µM (inactive) | > 100 µM (inactive)
C[C@H](CCC(=O)O)[C@H]1CC[C@@]2(C)[C@@H]3C(=O)C[C@H]4C(C)(C)[C@@H](O)CC[C@]4(C)[C@H]3C(=O)C[C@]12C | > 100 µM (inactive) | > 100 µM (inactive) | 41.8 µM (inactive) | > 100 µM (inactive) | > 100 µM (inactive) | > 100 µM (inactive) | > 100 µM (inactive) | > 100 µM (inactive) | > 100 µM (inactive) | > 100 µM (inactive) | > 100 µM (inactive) | > 100 µM (inactive) | > 100 µM (inactive) | > 100 µM (inactive) | > 100 µM (inactive) | 13.9 µM (inactive) | > 100 µM (inactive) | 25.1 µM (inactive) | > 100 µM (inactive) | > 100 µM (inactive)
NS(=O)(=O)c1ccc(/N=N/c2nc3[nH]cnc(=S)c3[nH]2)cc1 | 0.759 µM (active) | 0.0902 µM (active) | 6.41 µM (inactive) | 4.51 µM (inactive) | 2.05 µM (inactive) | 0.369 µM (active) | 1.74 µM (inactive) | 6.24 µM (inactive) | 1.93 µM (inactive) | 0.474 µM (active) | 5.36 µM (inactive) | 3.73 µM (inactive) | 11.1 µM (inactive) | 3.1 µM (inactive) | 0.411 µM (active) | 0.849 µM (active) | 0.365 µM (active) | 2.77 µM (inactive) | 1.21 µM (inactive) | 0.638 µM (active)
CCCCCCCCCCCCCCCC(=O)Nc1ccn(C2CCC(COP(=O)(O)OCC3OC(n4cc(F)c(=O)[nH]c4=O)CC3OC(C)=O)O2)c(=O)n1 (stereo not given) | 34 µM (inactive) | 1.47 µM (inactive) | 29.2 µM (inactive) | 14.1 µM (inactive) | 14.9 µM (inactive) | 13.7 µM (inactive) | 8.18 µM (inactive) | 12.1 µM (inactive) | 15.6 µM (inactive) | 24.4 µM (inactive) | 13.5 µM (inactive) | 15.5 µM (inactive) | 5.62 µM (inactive) | 3.14 µM (inactive) | 29.2 µM (inactive) | 7.48 µM (inactive) | 16.7 µM (inactive) | 11.2 µM (inactive) | 29.4 µM (inactive) | 9.25 µM (inactive)
CC1C(C#N)(C#N)C(C#N)=C(N)C1(C)[N+](=O)[O-] (stereo not given) | > 100 µM (inactive) | 32.4 µM (inactive) | 64.9 µM (inactive) | 47.4 µM (inactive) | 89.5 µM (inactive) | > 100 µM (inactive) | > 100 µM (inactive) | 48 µM (inactive) | 48.2 µM (inactive) | > 100 µM (inactive) | > 100 µM (inactive) | 66.4 µM (inactive) | 2.92 µM (inactive) | 87.5 µM (inactive) | > 100 µM (inactive) | > 100 µM (inactive) | > 100 µM (inactive) | 29.8 µM (inactive) | > 100 µM (inactive) | > 100 µM (inactive)
